What all share (format): biochemical
Test [1] addresses T1, human DPP-2 (Homo sapiens, UniProt Q9UHL4).
T1 construct: human DPP-2 covering amino acid 30-492; made in house; host or cells: insect cells (baculovirus expression system)
Description: DPP-2 (dipeptidyl peptidase 2) IC50 assay, Nle-Pro-AMC fluorescence intensity. The source says: (§1) For fluorescence intensity (FI) measurements with AMC as dye, an Ultra Evolution reader (TECAN, Maennedorf, Switzerland) was used. The instrument was equipped with a combination of a 350 nm (20 nm bandwidth) and a 500 nm (25 nm bandwidth) bandpath filter for fluorescence excitation and emission acquisition, respectively. To increase the signal:background ratio, an appropriate dichroic mirror was employed. All filters and the dichroic mirror were purchased from TECAN.
The data from the independent assay runs was averaged and plotted using program of Origin 7.5SR6 (OriginLab Corporation, Northampton, Mass., USA). Origin's built-in non-linear regression routine was used to fit the averaged data to the ‘logistics’ function y=A2+(A1−A2)/(1+(x/IC50)^p) (Equation 1) where y is the %-inhibition at the inhibitor concentration, x. […]
For the determination of IC50 values, the assays were performed at room temperature in 384-well plates. […] The effect of the compound on the enzymatic activity was obtained from the linear progress curves and determined from two readings, the first one taken directly after the addition of substrate (t=0 min) and the second one after 1 hour (t=60 min). The IC50 value was calculated from the plot of percentage of inhibition vs. inhibitor concentration using non-linear regression analysis software (XLfit, Vers. 4.0; ID Business Solution Ltd., Guildford, Surrey, UK). […]

Test [2] deals with T2, human DPP-IV (Homo sapiens, UniProt P27487).
T2 construct: human DPP-IV covering amino acid 39-766; made in house; host or cells: insect cells (baculovirus expression system)
T2 sequence (P27487 39-766): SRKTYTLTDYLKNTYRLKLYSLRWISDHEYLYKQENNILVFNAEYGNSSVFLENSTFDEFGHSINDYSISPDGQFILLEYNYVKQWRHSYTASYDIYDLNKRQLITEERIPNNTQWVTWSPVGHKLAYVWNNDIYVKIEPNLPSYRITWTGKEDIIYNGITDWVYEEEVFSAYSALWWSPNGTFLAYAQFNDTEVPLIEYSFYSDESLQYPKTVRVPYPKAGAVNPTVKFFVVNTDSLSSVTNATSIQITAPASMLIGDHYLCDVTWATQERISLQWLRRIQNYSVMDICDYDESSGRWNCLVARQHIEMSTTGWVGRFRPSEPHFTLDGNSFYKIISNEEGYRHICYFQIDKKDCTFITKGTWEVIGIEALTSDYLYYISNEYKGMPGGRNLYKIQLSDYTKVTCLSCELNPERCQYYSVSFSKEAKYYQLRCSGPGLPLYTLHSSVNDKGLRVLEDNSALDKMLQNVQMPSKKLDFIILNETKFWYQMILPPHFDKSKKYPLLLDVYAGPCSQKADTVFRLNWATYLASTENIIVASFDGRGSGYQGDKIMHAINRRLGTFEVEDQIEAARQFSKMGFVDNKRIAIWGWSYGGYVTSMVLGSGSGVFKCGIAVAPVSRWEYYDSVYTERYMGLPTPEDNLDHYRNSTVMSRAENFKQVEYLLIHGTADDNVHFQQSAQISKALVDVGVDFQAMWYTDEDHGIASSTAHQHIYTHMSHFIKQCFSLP
Briefly: DPP-IV (dipeptidyl peptidase IV) IC50 assay, Gly-Pro-AMC fluorescence intensity.
Excerpt: as §1
(§2) The data from the independent assay runs was averaged and plotted using program of Origin 7.5SR6 (OriginLab Corporation, Northampton, Mass., USA). Origin's built-in non-linear regression routine was used to fit the averaged data to the ‘logistics’ function y=A2+(A1−A2)/(1+(x/IC50)^p) (Equation 1) where y is the %-inhibition at the inhibitor concentration, x. A1 is the lowest inhibition value, i.e. 0%, and A2 the maximum inhibition value, i.e. 100%. The exponent, p, is the Hill coefficient. B. Determination of IC50 Values […]
(§3) For the determination of IC50 values, the assays were performed at room temperature in 384-well plates. All final assay volumes were 30 μl. Test compounds were dissolved in 90% (v/v) DMSO/water and diluted in water (containing 0.05% (w/v) CHAPS) to 3-times the desired assay concentration. For each assay, 10 μl water/CHAPS (±test compound) were added per well, followed by 10 μl protease solution (diluted with assay buffer; for final assay concentration cf. § Assay conditions). After 1 hour of incubation at room temperature, the reaction was started by addition of 10 μl substrate solution (for final concentrations cf. § Assay conditions). The eleven final compound concentrations were either 0.9 nM, 3 nM, 9 nM, 30 nM, 90 nM, 300 nM, 900 nM, 3 μM, 9 μM, 30 μM and 90 μM or 3 nM, 10 nM, 30 nM, 100 nM, 300 nM, 1 μM, 3 μM, 10 μM, 30 μM, 100 μM and 300 μM. The effect of the compound on the enzymatic activity was obtained from the linear progress curves and determined from two readings, the first one taken directly after the addition of substrate (t=0 min) and the second one after 1 hour (t=60 min). The IC50 value was calculated from the plot of percentage of inhibition vs. inhibitor concentration using non-linear regression analysis software (XLfit, Vers. 4.0; ID Business Solution Ltd., Guildford, Surrey, UK).
2.—DPP-IV (dipeptidyl peptidase IV) enzyme: human DPP-IV covering amino acid 39-766; expressed in and purified from insect cells (baculovirus expression system) substrate: Gly-Pro-AMC, purchased from Bachem (www.bachem.com), catalogue number I-1225 enzyme concentration: 0.01 nM substrate concentration: 10 μM assay buffer: 25 mM Tris, pH 7.4, 140 mM NaCl, 10 mM KCl, 0.05% (w/v) CHAPS

In test [3] the target is T3, endogenous human DPP-IV from plasma sample (Homo sapiens, UniProt P27487).
T3 construct: endogenous human DPP-IV from plasma sample, male donors; from tissue; host or cells: human blood plasma, male donors, diluted to 50% plasma content
T3 sequence (P27487 39-766 limits assumed): as the sequence (P27487 39-766) above
Description: human plasma DPP-IV IC50 assay, (H-Ala-Pro)2-Rh110 fluorescence intensity. The settings on record: for IC50: 50% plasma.
Excerpt: FI measurements using a Rh110 dye were done with a Safire2 reader (TECAN, Maennedorf, Switzerland). The Safire2 is a monochomator-based instrument and wavelengths of 485 nm and 535 nm were taken for fluorescence excitation and emission acquisition, respectively. The bandwidths were set to 20 nm in both the excitation and the emission path.
as §2
as §3, with “The eleven final compound concentrations were either 0.9 nM, 3 nM, 9 nM, 30 nM, 90 nM, 300 nM, 900 nM, 3 μM, 9 μM, 30 μM and 90 μM or 3 nM, 10 nM, 30 nM, 100 nM, 300 nM, 1 μM, 3 μM, 10 μM, 30 μM, 100 μM and 300 μM.” left out, “UK). […]” for “UK).”

Test [4] concerns the target T4, human DPP-8 (Homo sapiens, UniProt Q6V1X1).
T4 construct: human DPP-8 covering amino acid 1-882; made in house; host or cells: insect cells (baculovirus expression system)
Briefly: DPP-8 (dipeptidyl-peptidase 8) IC50 assay, Gly-Pro-AMC fluorescence intensity.
Excerpt: as §1, §2, §3
4.—DPP-8 (dipeptidyl-peptidase 8) enzyme: human DPP-8 covering amino acid 1-882; expressed in and purified from insect cells (baculovirus expression system) substrate: Gly-Pro-AMC, purchased from Bachem (www.bachem.com), catalogue number I-1225 enzyme concentration: 0.05 nM substrate concentration: 10 μM assay buffer: 25 mM Tris, pH 7.4, 140 mM NaCl, 10 mM KCl, 0.05% (w/v) CHAPS

Test [5] deals with T5, human DPP-9 (Homo sapiens, UniProt Q86TI2).
T5 construct: human DPP-9 covering amino acid 1-863; made in house; host or cells: Pichia pastoris
T5 sequence (Q86TI2 whole entry): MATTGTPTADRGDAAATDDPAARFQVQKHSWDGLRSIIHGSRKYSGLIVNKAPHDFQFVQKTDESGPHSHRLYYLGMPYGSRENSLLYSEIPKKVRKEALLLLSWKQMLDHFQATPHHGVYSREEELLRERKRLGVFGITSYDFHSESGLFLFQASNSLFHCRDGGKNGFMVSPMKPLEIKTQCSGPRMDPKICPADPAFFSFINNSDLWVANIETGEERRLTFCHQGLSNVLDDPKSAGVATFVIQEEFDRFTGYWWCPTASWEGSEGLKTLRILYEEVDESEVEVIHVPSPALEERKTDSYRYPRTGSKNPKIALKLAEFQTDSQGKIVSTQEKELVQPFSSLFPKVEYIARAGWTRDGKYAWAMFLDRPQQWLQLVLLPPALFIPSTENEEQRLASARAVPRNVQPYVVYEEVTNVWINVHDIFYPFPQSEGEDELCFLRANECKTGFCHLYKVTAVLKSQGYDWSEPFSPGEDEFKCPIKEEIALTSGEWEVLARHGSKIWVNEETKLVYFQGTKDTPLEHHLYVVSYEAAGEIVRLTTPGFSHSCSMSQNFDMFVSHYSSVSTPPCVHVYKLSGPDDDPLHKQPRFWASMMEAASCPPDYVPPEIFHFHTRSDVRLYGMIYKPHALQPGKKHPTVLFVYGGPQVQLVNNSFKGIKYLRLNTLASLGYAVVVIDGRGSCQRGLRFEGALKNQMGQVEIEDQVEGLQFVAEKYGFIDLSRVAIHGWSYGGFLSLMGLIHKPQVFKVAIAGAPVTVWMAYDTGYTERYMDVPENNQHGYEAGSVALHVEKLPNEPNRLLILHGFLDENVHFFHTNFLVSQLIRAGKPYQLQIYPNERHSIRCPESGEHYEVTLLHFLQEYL
Briefly: DPP-9 (dipeptidyl-peptidase 9) IC50 assay, Gly-Pro-AMC fluorescence intensity.
Excerpt: as §1, §2, §3
5.—DPP-9 (dipeptidyl-peptidase 9) enzyme: human DPP-9 covering amino acid 1-863; expressed in and purified from Pichia pastoris substrate: Gly-Pro-AMC, purchased from Bachem (www.bachem.com), catalogue number I-1225 enzyme concentration: 1 nM substrate concentration: 10 μM assay buffer: 25 mM Tris, pH 7.4, 140 mM NaCl, 10 mM KCl, 0.05% (w/v) CHAPS

The target in test [6] is T6, human FAP (Homo sapiens, UniProt Q12884).
T6 construct: human FAPa covering amino acid 27-760 excluding the cytoplasmic and transmebrane domains; made in house; host or cells: insect cells (baculovirus expression system)
T6 sequence (Q12884 27-760): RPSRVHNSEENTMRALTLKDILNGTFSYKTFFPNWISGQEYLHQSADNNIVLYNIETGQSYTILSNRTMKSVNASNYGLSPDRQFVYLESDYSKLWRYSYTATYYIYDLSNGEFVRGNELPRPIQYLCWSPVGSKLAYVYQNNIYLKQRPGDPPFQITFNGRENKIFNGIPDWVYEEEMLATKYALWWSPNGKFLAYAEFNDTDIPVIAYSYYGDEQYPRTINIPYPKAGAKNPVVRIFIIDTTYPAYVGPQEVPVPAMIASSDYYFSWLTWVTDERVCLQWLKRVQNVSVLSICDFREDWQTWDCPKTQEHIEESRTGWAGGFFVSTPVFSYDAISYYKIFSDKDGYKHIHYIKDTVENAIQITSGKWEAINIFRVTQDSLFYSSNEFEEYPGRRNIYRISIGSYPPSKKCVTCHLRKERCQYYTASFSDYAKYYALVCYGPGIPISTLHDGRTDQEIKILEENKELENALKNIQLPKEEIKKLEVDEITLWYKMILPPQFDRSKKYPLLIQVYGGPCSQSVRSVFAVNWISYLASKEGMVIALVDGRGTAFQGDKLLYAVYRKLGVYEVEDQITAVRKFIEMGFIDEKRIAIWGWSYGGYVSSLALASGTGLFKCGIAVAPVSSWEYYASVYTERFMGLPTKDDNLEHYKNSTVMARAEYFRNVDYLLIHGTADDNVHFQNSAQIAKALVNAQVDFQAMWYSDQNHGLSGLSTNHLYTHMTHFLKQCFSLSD
Briefly: FAP (fibroblast activation protein, alpha) IC50 assay, Z-Gly-Pro-AMC fluorescence intensity.
Excerpt: as §1
The data from the independent assay runs was averaged and plotted using program of Origin 7.5SR6 (OriginLab Corporation, Northampton, Mass., USA). Origin's built-in non-linear regression routine was used to fit the averaged data to the ‘logistics’ function y=A2+(A1−A2)/(1+(x/IC50)^p) (Equation 1) where y is the %-inhibition at the inhibitor concentration, x. A1 is the lowest inhibition value, i.e. 0%, and A2 the maximum inhibition value, i.e. 100%. The exponent, p, is the Hill coefficient. B. Determination of IC50 Values
as §3, with “The eleven final compound concentrations were either 0.9 nM, 3 nM, 9 nM, 30 nM, 90 nM, 300 nM, 900 nM, 3 μM, 9 μM, 30 μM and 90 μM or 3 nM, 10 nM, 30 nM, 100 nM, 300 nM, 1 μM, 3 μM, 10 μM, 30 μM, 100 μM and 300 μM.” left out, “UK). […]” for “UK).”

The target in test [7] is T7, human PEP (Homo sapiens, UniProt P48147).
T7 construct: human PEP covering amino acid 1-710; made in house; host or cells: Pichia pastoris
T7 sequence (P48147 1-710): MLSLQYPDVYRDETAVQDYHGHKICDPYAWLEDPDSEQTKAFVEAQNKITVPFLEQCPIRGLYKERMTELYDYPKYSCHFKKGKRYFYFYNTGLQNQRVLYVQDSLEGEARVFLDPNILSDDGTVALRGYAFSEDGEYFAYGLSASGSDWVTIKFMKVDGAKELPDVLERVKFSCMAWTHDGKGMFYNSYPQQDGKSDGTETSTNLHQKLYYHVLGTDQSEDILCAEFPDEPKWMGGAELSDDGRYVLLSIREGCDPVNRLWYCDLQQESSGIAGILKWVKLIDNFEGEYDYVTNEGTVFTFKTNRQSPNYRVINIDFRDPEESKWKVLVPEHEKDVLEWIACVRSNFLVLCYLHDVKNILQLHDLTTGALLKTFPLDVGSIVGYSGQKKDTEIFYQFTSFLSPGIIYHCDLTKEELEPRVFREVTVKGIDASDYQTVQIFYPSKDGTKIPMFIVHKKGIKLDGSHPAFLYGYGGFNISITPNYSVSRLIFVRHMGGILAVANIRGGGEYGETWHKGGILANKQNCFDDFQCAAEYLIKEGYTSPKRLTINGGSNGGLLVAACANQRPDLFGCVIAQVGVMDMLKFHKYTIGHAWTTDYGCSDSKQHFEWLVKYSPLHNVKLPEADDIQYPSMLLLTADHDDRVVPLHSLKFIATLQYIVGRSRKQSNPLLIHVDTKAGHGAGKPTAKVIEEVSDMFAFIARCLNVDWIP
Description: PEP (prolyl-endopeptidase) IC50 assay, Z-Gly-Pro-AMC fluorescence intensity.
Excerpt: as §1, §2
as §3, with “The eleven final compound concentrations were either 0.9 nM, 3 nM, 9 nM, 30 nM, 90 nM, 300 nM, 900 nM, 3 μM, 9 μM, 30 μM and 90 μM or 3 nM, 10 nM, 30 nM, 100 nM, 300 nM, 1 μM, 3 μM, 10 μM, 30 μM, 100 μM and 300 μM.” left out, “UK). […]” for “UK).”

The mark [8] stands for this setting: individual experiments 1-4, read-out: IC50 value.
Setting [9] is: mean of 4 experiments, read-out: Mean IC50 value ± SD.

SMILES strings stand for the structures. Several values for one entry are separate records, joined by “and”; a condition that tells them apart may be missing. Identical values can stand only once. Like-named read-outs stand apart in the source and are kept apart here.

One may read the IC50 as the midpoint of a concentration-inhibition curve. In general, Hill coefficient refers to the slope factor of the fitted curve.

T4 sequence (Q6V1X1 17-898): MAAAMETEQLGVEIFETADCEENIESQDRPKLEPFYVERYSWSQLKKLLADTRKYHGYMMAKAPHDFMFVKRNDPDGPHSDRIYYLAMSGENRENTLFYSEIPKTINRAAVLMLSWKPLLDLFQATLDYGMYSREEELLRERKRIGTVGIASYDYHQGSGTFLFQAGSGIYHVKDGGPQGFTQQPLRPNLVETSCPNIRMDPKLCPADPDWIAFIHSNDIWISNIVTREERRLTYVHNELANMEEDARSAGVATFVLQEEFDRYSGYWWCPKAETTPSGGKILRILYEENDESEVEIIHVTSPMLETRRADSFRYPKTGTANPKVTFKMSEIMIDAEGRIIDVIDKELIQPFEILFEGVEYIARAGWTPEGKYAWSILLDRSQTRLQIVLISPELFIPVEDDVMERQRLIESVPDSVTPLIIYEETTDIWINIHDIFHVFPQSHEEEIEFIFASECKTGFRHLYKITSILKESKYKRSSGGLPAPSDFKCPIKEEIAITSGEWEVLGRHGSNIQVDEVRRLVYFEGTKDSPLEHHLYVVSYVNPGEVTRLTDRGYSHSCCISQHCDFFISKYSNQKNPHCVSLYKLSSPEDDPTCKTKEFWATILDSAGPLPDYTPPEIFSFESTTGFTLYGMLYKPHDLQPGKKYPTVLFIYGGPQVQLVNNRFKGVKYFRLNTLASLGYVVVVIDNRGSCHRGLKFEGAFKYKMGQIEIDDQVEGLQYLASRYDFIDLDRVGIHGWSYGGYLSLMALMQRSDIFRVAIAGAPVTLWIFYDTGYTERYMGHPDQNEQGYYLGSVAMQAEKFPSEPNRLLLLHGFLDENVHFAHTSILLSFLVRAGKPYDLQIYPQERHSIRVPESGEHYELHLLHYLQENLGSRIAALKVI

Regarding `N#C[C@@H]1CCCN1C(=O)CNC12CC3CC(C1)CC(O[C@@H]1O[C@H](C(=O)O)[C@@H](O)[C@H](O)[C@H]1O)(C3)C2` [NVP-BQS867-NX-2], the IC50 in test [1] (setting [8]) is over 300 µM; in test [1] (setting [9]), over 90 µM; in test [2] (human DPP-IV, individual experiments 1-4, read-out: IC50 value) it was 0.004 µM and 0.006 µM and 0.007 µM and 0.005 µM; in test [2] (human DPP-IV, mean of 4 experiments, read-out: Mean IC50 value ± SD), 0.006 ± 0.001 µM; in test [3] (setting [8]), 0.003 µM and 0.004 µM; in test [3] (setting [9]), 0.004 ± 0.001 µM. Also, the IC50 is 8.3 µM and 8 µM and 8.1 µM and 7.6 µM in test [4] (human DPP-8, individual experiments 1-4, read-out: IC50 value); 8 ± 0.3 µM in test [4] (human DPP-8, mean of 4 experiments, read-out: Mean IC50 value ± SD); 0.7 µM and 0.4 µM and 0.6 µM in test [5] (human DPP-9, individual experiments 1-4, read-out: IC50 value); 0.5 ± 0.2 µM in test [5] (human DPP-9, mean of 4 experiments, read-out: Mean IC50 value ± SD); 43 µM and 16 µM and 19 µM in test [6] (setting [8]); 24 ± 13 µM in test [6] (setting [9]). Also, the IC50 in test [7] (setting [8]) was 52 µM and 15 µM and 18 µM and 14 µM; in test [7] (setting [9]), 25 ± 18 µM. Besides, the “potency at inhibiting the DPP-4 enzyme” value in test [2] (compared with vildagliptin) is recorded as “equally potent to vildagliptin”. Besides, the Hill coefficient in test [2] (human DPP-IV, individual experiments 1-4) is 0.7 and 0.9 and 1.3 and 1.1; in test [3] (individual experiments 1-4) it was 1.4 (2×) and 1.2 (2×); in test [4] (human DPP-8, individual experiments 1-4) it was 1.2 (3×) and 1.3; in test [5] (human DPP-9, individual experiments 1-4) it was 1.0 (2×) and 0.9 (2×); in test [6] (individual experiments 1-4), 1.3 and 0.8 (2×) and 0.7; in test [7] (individual experiments 1-4) it was 0.7 and 1.2 and 0.8 and 0.6. Moreover, in test [4] (compared with vildagliptin), the “potency at inhibiting DPP-8 enzyme” value is “less potent”. In addition, the “potency at inhibiting DPP-9 enzyme” value in test [5] (compared with vildagliptin) is given as “less potent”.
